Measured values taken from patent US20240059703A1 (AMGEN INC., priority 2021, published 2024).

Experiments:
KRAS G12C = KRAS G12C (Homo sapiens (Human), UniProt P01116, C118A/G12C); assay: 2 h coupled exchange assay; assay type: biochemical; conditions: Avg 2 h Coupled exchange IC50, 2 h compound pre-incubation
Description: The term “2 h coupled exchange assay” or “20 h coupled exchange assay” as used herein refers to the assay described in the Section entitled “BIOLOGICAL EVALUATION.”

[1] = system: MIA PaCa-2 (human pancreatic carcinoma) cells; assay: Cell Viability Assay (CellTiter-Glo), MIA PaCa-2; assay type: cell-based
Description: Serially-diluted compound or DMSO was added to the cells, and plates were incubated at 37° C., 5% CO2 for 72 h. Cell viability was measured using a CellTiter-Glo® Luminescent Cell Viability Assay kit (Promega) according to the manufacturer's protocol. The luminescence signal of treated samples was normalized to DMSO control, and data were analyzed using a 4-parameter logistic model to calculate IC50 values.

[2] = system: A549 (human lung carcinoma) cells; assay: Cell Viability Assay (CellTiter-Glo), A549; assay type: cell-based
In short: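 Cells grown in RPMI 1640 with 10% FBS were seeded at 1.67E+04 cells/mL and left overnight at 37° C., 5% CO2. They were then exposed to serially diluted compound for 72 h, after which CellTiter-Glo luminescence was read, normalized to DMSO, and fitted to a 4-parameter logistic model for IC50.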

[3] = SOS-mediated nucleotide exchange

Sequence of KRAS G12C (P01116 other isoform, or with tags, fused parts or gaps G12C/C118A): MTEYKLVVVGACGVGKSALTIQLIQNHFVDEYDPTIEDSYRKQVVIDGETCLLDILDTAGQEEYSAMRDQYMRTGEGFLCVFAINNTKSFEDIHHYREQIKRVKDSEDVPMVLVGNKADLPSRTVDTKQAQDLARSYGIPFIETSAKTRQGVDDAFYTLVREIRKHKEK

SMILES: C=CC(=O)N1CC2(CCN(c3nc4cc(F)ccc4c(-c4c(C)ccc5[nH]ncc45)c3C)[C@H]2C)C1 (single isomer, unassigned) [Example 2-61]
- IC50 (KRAS G12C; [3]): 134 nM
- IC50 ([1]; 72 h): 1320 nM
- IC50 ([2]; 72 h): > 5000 nM

SMILES: C=CC(=O)N1CC2(CCN(c3nc4cc(-c5scnc5C)cnc4c(-c4cccc(C)c4C)c3C#N)C2)C1 [Example 19-1, 4-(2,3-Dimethylphenyl)-7-(4-methyl-1,3-thiazol-5-yl)-2-(2-(2-propenoyl)-2,6-diazaspiro[3.4]octan-6-yl)-1,5-naphthyridine-3-carbonitrile]
- IC50 (KRAS G12C): 74 nM
- IC50 ([1]; Homo sapiens, MIA PaCa-2, 72 h): 374 nM
- IC50 ([2]; Homo sapiens, A549, 72 h): > 5000 nM

SMILES: C=CC(=O)N1CC2(CCN(c3nc4c(c(-c5c(C)ccc6[nH]ncc56)c3C#N)[C@@H]3CC[C@H]4C3)C2)C1 (single isomer, unassigned) [Example 14-4]
- IC50 (KRAS G12C; [3]): 17 nM
- IC50 ([1]; Homo sapiens, MIA PaCa-2, 72 h): 9 nM
- IC50 ([2]; Homo sapiens, A549, 72 h): > 5000 nM

SMILES: C=CC(=O)N1CC2(CCN(c3nc4c(c(-c5c(F)cccc5CO)c3C#N)C[C@H]3C[C@@H]4C3(C)C)C2)C1 [Example 2-73, (1R,9R)-6-(2-fluoro-6-(hydroxymethyl)phenyl)-10,10-dimethyl-4-(2-(2-propenoyl)-2,6-diazaspiro[3.4]octan-6-yl)-3-azatricyclo[7.1.1.0^2,7]undeca-2,4,6-triene-5-carbonitrile]
- IC50 (KRAS G12C; [3]): 228 nM
- IC50 ([1]; Homo sapiens, MIA PaCa-2, 72 h): 1940 nM
- IC50 ([2]; Homo sapiens, A549, 72 h): > 5000 nM

SMILES: C=CC(=O)N1CC2(CCN(c3nc4c(c(-c5cc(O)cc6ccccc56)c3C#N)C3CCC4C3)C2)C1 [Example 2-38, (1R,8S)-6-(3-hydroxy-1-naphthalenyl)-4-(2-(2-propenoyl)-2,6-diazaspiro[3.4]octan-6-yl)-3-azatricyclo[6.2.1.0^2,7]undeca-2,4,6-triene-5-carbonitrile|(1S, 8R)-6-(3-hydroxy-1-naphthalenyl)-4-(2-(2-propenoyl)-2,6-diazaspiro[3.4]octan-6-yl)-3-azatricyclo[6.2.1.0^2,7]undeca-2,4,6-triene-5-carbonitrile]
- IC50 (KRAS G12C; [3]): 67 nM
- IC50 ([1]; Homo sapiens, MIA PaCa-2, 72 h): 157 nM
- IC50 ([2]; Homo sapiens, A549, 72 h): 3420 nM

SMILES: C=CC(=O)N1CC2(CCN(c3nc4cc(-c5nccn5C)ccc4c(-c4ccccc4Cl)c3C#N)C2)C1 [Example 15-7, 4-(2-chlorophenyl)-7-(1-methyl-1H-imidazol-2-yl)-2-(2-(2-propenoyl)-2,6-diazaspiro[3.4]octan-6-yl)-3-quinolinecarbonitrile]
- IC50 (KRAS G12C): 115 nM
- IC50 ([1]; Homo sapiens, MIA PaCa-2, 72 h): 966 nM
- IC50 ([2]; Homo sapiens, A549, 72 h): 4140 nM

SMILES: C=CC(=O)N1CC2(CCN(c3nc4c(c(-c5c(C)ccc6[nH]ncc56)c3C#N)CC(C)(C)C4)C2)C1 [Example 13-12, 6,6-dimethyl-4-(5-methyl-1H-indazol-4-yl)-2-(2-(2-propenoyl)-2,6-diazaspiro[3.4]octan-6-yl)-6,7-dihydro-5H-cyclopenta[b]pyridine-3-carbonitrile]
- IC50 (KRAS G12C; [3]): 29 nM
- IC50 ([1]; Homo sapiens, MIA PaCa-2, 72 h): 157 nM
- IC50 ([2]; Homo sapiens, A549, 72 h): > 5000 nM

SMILES: C=CC(=O)N1CC2(CCN(c3nc4c(c(-c5c(C)ccc6[nH]ncc56)c3C#N)CCC(C)C4)C2)C1 (stereo not drawn) [Example 2-1, 2-(2-acryloyl-2,6-diazaspiro[3.4]octan-6-yl)-7-methyl-4-(5-methyl-1H-indazol-4-yl)-5,6,7,8-tetrahydroquinoline-3-carbonitrile]
- IC50 (KRAS G12C; [3]): 42 nM
- IC50 ([1]; Homo sapiens, MIA PaCa-2, 72 h): 430 nM
- IC50 ([2]; Homo sapiens, A549, 72 h): 3100 nM

SMILES: C=CC(=O)N1CC2(CCN(c3nc4c(c(-c5ccccc5F)c3C#N)CCC(c3scnc3CO)=C4)C2)C1 [Example 23-56, 4-(2-fluorophenyl)-7-(4-(hydroxymethyl)-1,3-thiazol-5-yl)-2-(2-(2-propenoyl)-2,6-diazaspiro[3.4]octan-6-yl)-5,6-dihydro-3-quinolinecarbonitrile]
- IC50 (KRAS G12C): 128 nM
- IC50 ([1]; Homo sapiens, MIA PaCa-2, 72 h): 487 nM
- IC50 ([2]; Homo sapiens, A549, 72 h): > 5000 nM

SMILES: C=CC(=O)N1CC2(CCN(c3nc4c(c(-c5cc(O)cc(C)c5Cl)c3C#N)COC(C)(C)C4)C2)C1 [Example 13-153, 4-(2-chloro-5-hydroxy-3-methylphenyl)-7,7-dimethyl-2-(2-(2-propenoyl)-2,6-diazaspiro[3.4]octan-6-yl)-7,8-dihydro-5H-pyrano[4,3-b]pyridine-3-carbonitrile]
- IC50 (KRAS G12C; [3]): 64 nM
- IC50 ([1]; Homo sapiens, MIA PaCa-2, 72 h): 58 nM
- IC50 ([2]; Homo sapiens, A549, 72 h): > 5000 nM

SMILES: C=CC(=O)N1CC2(CCN(c3nc4c(c(-c5cccc(O)c5F)c3C#N)CCN(c3scnc3C)C4)C2)C1 [Example 35-1, 4-(2-fluoro-3-hydroxyphenyl)-7-(4-methyl-1,3-thiazol-5-yl)-2-(2-(2-propenoyl)-2,6-diazaspiro[3.4]octan-6-yl)-5,6,7,8-tetrahydro-1,7-naphthyridine-3-carbonitrile]
- IC50 (KRAS G12C): 67 nM
- IC50 ([1]; Homo sapiens, MIA PaCa-2, 72 h): > 5000 nM
- IC50 ([2]; Homo sapiens, A549, 72 h): > 5000 nM

SMILES: C=CC(=O)N1CC2(CCN(c3nc4cc(-c5scnc5C)cnc4c(-c4cccc(C)c4C)c3C#N)C2)C1 (single isomer, unassigned) [Example 19-13, (M)-4-(2,3-dimethylphenyl)-7-(4-methyl-1,3-thiazol-5-yl)-2-(2-(2-propenoyl)-2,6-diazaspiro[3.4]octan-6-yl)-1,5-naphthyridine-3-carbonitrile]
- IC50 (KRAS G12C): 67 nM
- IC50 ([1]; Homo sapiens, MIA PaCa-2, 72 h): 671 nM
- IC50 ([2]; Homo sapiens, A549, 72 h): > 5000 nM

SMILES: C=CC(=O)N1CC2(CCN(c3nc4c(c(-c5c(C)ccc6[nH]ncc56)c3C#N)CCCC4)C2)C1 [Example 2-8, 4-(5-methyl-1H-indazol-4-yl)-2-(2-(2-propenoyl)-2,6-diazaspiro[3.4]octan-6-yl)-5,6,7,8-tetrahydro-3-quinolinecarbonitrile]
- IC50 (KRAS G12C; [3]): 59 nM
- IC50 ([1]; Homo sapiens, MIA PaCa-2, 72 h): 554 nM
- IC50 ([2]; Homo sapiens, A549, 72 h): 3640 nM

SMILES: C=CC(=O)N1CC2(CCN(c3nc4cc(-n5ccnc5C)ccc4c(-c4ccccc4Cl)c3C#N)C2)C1 [Example 17-3, 4-(2-chlorophenyl)-7-(2-methyl-1H-imidazol-1-yl)-2-(2-(2-propenoyl)-2,6-diazaspiro[3.4]octan-6-yl)-3-quinolinecarbonitrile]
- IC50 (KRAS G12C): 36 nM
- IC50 ([1]; Homo sapiens, MIA PaCa-2, 72 h): 684 nM
- IC50 ([2]; Homo sapiens, A549, 72 h): 1880 nM

SMILES: C=CC(=O)N1CC2(CCN(c3nc4c(c(-c5c(C)c(Cl)cc6[nH]ncc56)c3Cl)COC(C)(C)C4)C2)C1 (single isomer, unassigned) [Example 2-109, (P)-1-(6-(3-chloro-4-(6-chloro-5-methyl-1H-indazol-4-yl)-7,7-dimethyl-7,8-dihydro-5H-pyrano[4,3-b]pyridin-2-yl)-2,6-diazaspiro[3.4]octan-2-yl)-2-propen-1-one]
- IC50 (KRAS G12C; [3]): 23 nM
- IC50 ([1]; Homo sapiens, MIA PaCa-2, 72 h): 3 nM
- IC50 ([2]; Homo sapiens, A549, 72 h): > 5000 nM

SMILES: C=CC(=O)N1CC2(CCN(c3nc4c(F)cccc4c(-c4c(C)ccc5[nH]ncc45)c3C#N)CC2(F)F)C1 [Example 1-43, 2-(5,5-difluoro-2-(2-propenoyl)-2,7-diazaspiro[3.5]nonan-7-yl)-8-fluoro-4-(5-methyl-1H-indazol-4-yl)-3-quinolinecarbonitrile]
- IC50 (KRAS G12C; [3]): 858 nM
- IC50 ([1]; Homo sapiens, MIA PaCa-2, 72 h): 2160 nM
- IC50 ([2]; Homo sapiens, A549, 72 h): 6250 nM

SMILES: C=CC(=O)N1CC2(CCN(c3nc4c(c(-c5cc(O)ccc5C)c3C#N)C[C@H]3C[C@@H]4C3)C2)C1 (single isomer, unassigned) [Example 13-126]
- IC50 (KRAS G12C; [3]): 29 nM
- IC50 ([1]; Homo sapiens, MIA PaCa-2, 72 h): > 5000 nM
- IC50 ([2]; Homo sapiens, A549, 72 h): > 5000 nM

SMILES: C=CC(=O)N1CC2(CCN(c3nc4cc(-c5scnc5C)cnc4c(-c4cccc(C)c4C)c3C#N)C2)C1 (single isomer, unassigned) [Example 19-14, (P)-4-(2,3-dimethylphenyl)-7-(4-methyl-1,3-thiazol-5-yl)-2-(2-(2-propenoyl)-2,6-diazaspiro[3.4]octan-6-yl)-1,5-naphthyridine-3-carbonitrile]
- IC50 (KRAS G12C): 38 nM
- IC50 ([1]; 72 h): 366 nM
- IC50 ([2]; 72 h): > 5000 nM

SMILES: C=CC(=O)N1CC2(CCN(c3nc4c(c(-c5c(O)cccc5F)c3C#N)CCC(c3scnc3C)=C4)C2)C1 (single isomer, unassigned) [Example 23-51, (M)-4-(2-fluoro-6-hydroxyphenyl)-7-(4-methyl-1,3-thiazol-5-yl)-2-(2-(2-propenoyl)-2,6-diazaspiro[3.4]octan-6-yl)-5,6-dihydro-3-quinolinecarbonitrile]
- IC50 (KRAS G12C): 127000 nM
- IC50 ([1]; 72 h): 6220 nM
- IC50 ([2]; 72 h): 9640 nM

SMILES: C=CC(=O)N1CC2(CCN(c3nc4cc(-c5scnc5C)ccc4c(-c4ccccc4Cl)c3C#N)C2)C1 (single isomer, unassigned) [Example 20-4, (P)-4-(2-chlorophenyl)-7-(4-methyl-1,3-thiazol-5-yl)-2-(2-(2-propenoyl)-2,6-diazaspiro[3.4]octan-6-yl)-3-quinolinecarbonitrile]
- IC50 (KRAS G12C): 69 nM
- IC50 ([1]; 72 h): 1010 nM
- IC50 ([2]; 72 h): > 5000 nM

SMILES: C=CC(=O)N1CC2(CCN(c3nc4cc(OC)ccc4c(-c4c(C)ccc5[nH]ncc45)c3F)C2)C1 [Example 27-1, 1-(6-(3-fluoro-7-methoxy-4-(5-methyl-1H-indazol-4-yl)-2-quinolinyl)-2,6-diazaspiro[3.4]octan-2-yl)-2-propen-1-one]
- IC50 (KRAS G12C): 134 nM
- IC50 ([1]; Homo sapiens, MIA PaCa-2, 72 h): 996 nM
- IC50 ([2]; Homo sapiens, A549, 72 h): > 5000 nM

SMILES: C=CC(=O)N1CC2(CCN(c3nc4c(c(-c5ccccc5F)c3C#N)CC[C@@](C)(c3scnc3C)C4)C2)C1 [Example 23-13, (7R)-4-(2-fluorophenyl)-7-methyl-7-(4-methyl-1,3-thiazol-5-yl)-2-(2-(2-propenoyl)-2,6-diazaspiro[3.4]octan-6-yl)-5,6,7,8-tetrahydro-3-quinolinecarbonitrile]
- IC50 (KRAS G12C): 39 nM
- IC50 ([1]; Homo sapiens, MIA PaCa-2, 72 h): 911 nM
- IC50 ([2]; Homo sapiens, A549, 72 h): > 5000 nM
